{"source": "patent US8048455B2", "about": "“Treatment of cancer and inflammatory disorder” (Academia Sinica, priority 2006, dated 2011)", "key": {"NF-κB•DNA complex": {"system": "NF-κB•DNA complex", "experiment": "Electrophoretic mobility shift assay of NF-κB binding to consensus DNA in LPS-stimulated RAW 264.7 cells", "type": "cell-based, murine", "settings": "100 μM, LPS 1 μg/mL, 90 min", "protocol": "EMSA was performed with the […]™ Chemiluminescent EMSA kit (Pierce Biotechnology, Rockford, Ill.). […] The DNA-protein complexes were subjected to 5-10% gradient PAGE. Competition assay with unlabeled oligonucleotide (cold DNA) was performed in parallel. […]"}, "NO": {"system": "NO", "experiment": "Plasma nitrite concentration in SNP-treated mice", "type": "in vivo, Female ICR mice", "settings": "topical pretreatment 30 min before SNP; dLGG 10 mg/site, PTIO 3.5 mg/site", "protocol": "Female ICR mice were topically treated on their shaven back area of a 2-cm diameter (3.14 cm^2/site/mouse) with vehicle control (acetone), SNP (positive control), or with dLGG or PTIO for 30 minutes before SNP application. Mouse plasma samples were subjected to determine the nitrite content followed a published method (Moshage et al. Clin Chem 1995; 41:892-6).\nTo examine the capability of dLGG to scavenge NO in vivo, the plasma NO concentration in SNP-insulted mice was determined with or without pretreatment with dLGG. Female ICR mice were transdermally treated with 200 μL acetone (vehicle control) or SNP (5.96 mg/site) only for 15 minutes, or pre-treated with dLGG (10 mg/site) or PTIO (3.5 mg/site) for 30 minutes before SNP treatment."}, "human COX-2 promoter": {"system": "human COX-2 promoter", "experiment": "COX-2 promoter-driven luciferase reporter assay in TPA-treated B16 melanoma cells", "type": "cell-based, murine", "settings": "reference control", "description": "A double-mutated COX-2 promoter containing mutations on both NF-κB sites was also constructed (FIG. 2). PPGL-3-Basic vector was used as a negative control in luciferase assays. COX-2 reporter activity in arbitrary units (AU) was normalized to that for the Renilla luciferase reporter.\nMurine melanoma B-16 cells co-transfected with the full-length pCOX-2-Luc and internal control plasmid pRL-TK-Luc plasmid constructs were stimulated without (control) or with TPA, in the absence or presence of the indicated concentrations of CREa8. An amount of 10 μg of total protein lysate was subjected to dual luciferase reporter assay. The induction fold of COX promoter activity by TPA treatment only is presented as 100%. The statistical analyses between […] and CREa8, aspirin, or indomethacin (Indo.) treatment were performed using Student's t-test.\nB-16 cells were co-transfected with the full-length pCOX-2-Luc and internal control Renilla pRL-TK-Luc plasmid constructs with the LIPOFECTAMINE reagent (Invitrogen). The cells were then stimulated with vehicle (0.001% DMSO) or with 50 ng/mL TPA, in the absence or presence of dLGG for 6 hours. Ten μg of total protein lysate prepared with Passive Lysis Buffer (Promega) was subjected to dual luciferase reporter assay. The induction fold of COX-2 promoter activity by TPA treatment only is presented as 100%.\nThe contribution of specific cis-acting element binding sites on the transcription of COX-2 was examined. Data were obtained from 2 to 3 experiments with 3 to 6 replicates and expressed as mean±SD. Two-way ANOVA was used to analyze significance of differences."}, "B16 melanoma": {"system": "B16 melanoma", "experiment": "In vivo inhibition of B16 melanoma growth in C57BL/6J mice", "protocol": "The chemopreventive effect of the CREa8 subfraction was evaluated on tumor growth using the B16 melanoma C57BL/6J mouse system. Six-week-old animals (4 groups of mice, 5 in each group) were used in this experiment. Group 1 mice (Sham control) were intraperitoneally (i.p.) injected with 20 μL of DMSO every 2 days throughout the experimental period, except 100 μL PBS was injected on day 0. Group 4 mice (Tumor control) were pre-treated with DMSO every 2 days, starting from day—14, for 2 weeks, inoculated with B16 tumor cells (1×10^6 cells/100 μL PBS) subcutaneously (s.c.) on the abdominal area on day 0, and then injected with DMSO every 2 days until day 21. Group 2 mice were i.p. pre-treated with CREa8 (10 mg/kg body weight per dose) every 2 days, starting from day—14, for 2 weeks, s.c. inoculated with B16 tumor cells on day 0, and then continuously treated with CREa8 (i.p.) every 2 days until day 21. Group 3 mice were similarly pre-treated with DMSO every 2 days for 2 weeks, inoculated with B16 tumor cells on day 0, and then treated with cisplatin (i.p.) every 2 days until day 21. The test mice were monitored daily, and body weights and tumor size (average of 2 dimensions) recorded every 2 days. At the end of the experiment (day 21), tumors were excised and weighed.\nThe cancer prevention efficacy of the dLGG-rich fraction (CREa8) was examined in vivo in 4 groups of mice according to the method described above. Cisplatin, a cancer chemotherapeutic, was used as a reference control."}}}
{"smiles": "CC/C=C\\C/C=C\\C/C=C\\CCCCCCCC(=O)OC[C@@H](O)CO[C@@H]1O[C@H](CO)[C@H](O)[C@H](O)[C@H]1O", "note": "[1LGG, 1-O-α-linolenoyl-3-O-β-galactopyranosyl-sn-glycerol]", "values": [{"measurement": "Inhibition of NF-κB•DNA complex formation (structure-activity study)", "setting": "NF-κB•DNA complex", "value": "less effective than dLGG and dLG"}]}
{"smiles": "CC/C=C\\C/C=C\\C/C=C\\CCCCCCCC(=O)O[C@H](CO)CO[C@@H]1O[C@H](CO)[C@H](O)[C@H](O)[C@H]1O", "note": "[2LGG, 2-O-α-linolenoyl-3-O-β-galactopyranosyl-sn-glycerol]", "values": [{"measurement": "Inhibition of NF-κB•DNA complex formation (structure-activity study)", "setting": "NF-κB•DNA complex", "value": "less effective than dLGG and dLG"}]}
{"smiles": "CC1(C)N([O])C(c2ccccc2)=[N+]([O-])C1(C)C", "note": "[PTIO, 2-phenyl-4,4,5,5-tetramethylimidazoline-1-oxyl-3-oxide, reference compound]", "values": [{"measurement": "SNP-induced increase of nitrite plasma concentration", "setting": "NO", "value": "suppressed"}]}
{"smiles": "CCCCCCCCCCCCCCCCCC(=O)O", "note": "[SA, stearic acid, reference compound]", "values": [{"measurement": "Inhibition of NF-κB•DNA complex formation (structure-activity study)", "setting": "NF-κB•DNA complex", "value": "little or no detectable effect"}]}
{"smiles": "CC(=O)Oc1ccccc1C(=O)O", "note": "[aspirin, reference compound]", "values": [{"measurement": "Suppression of COX-2 promoter activity", "setting": "human COX-2 promoter; 45 μg/mL", "value": 19, "unit": "%"}]}
{"smiles": "N.N.[Cl][Pt][Cl]", "note": "[cisplatin]", "values": [{"measurement": "Average tumor size", "setting": "B16 melanoma; day 7, i.p. every 2 days, tumor control 0.73 cm", "value": 0.29, "unit": "cm"}, {"measurement": "Average tumor size, of the tumor control", "setting": "B16 melanoma; day 17", "value": 73, "unit": "%"}, {"measurement": "Tumor weight to body weight ratio", "setting": "B16 melanoma; day 21, tumor control 31.3%", "value": 25.2, "unit": "%"}, {"measurement": "Body weights versus other groups", "setting": "B16 melanoma; throughout treatment", "value": "no significant differences"}]}
{"smiles": "CC/C=C\\C/C=C\\C/C=C\\CCCCCCCC(=O)OC[C@H](CO)OC(=O)CCCCCCC/C=C\\C/C=C\\C/C=C\\CC", "note": "[dLG, 1,2-di-O-α-linolenoyl-sn-glycerol]", "values": [{"measurement": "Inhibition of NF-κB•DNA complex formation (structure-activity study)", "setting": "NF-κB•DNA complex", "value": "almost completely inhibited"}]}
{"smiles": "COc1ccc2c(c1)c(CC(=O)O)c(C)n2C(=O)c1ccc(Cl)cc1", "note": "[indomethacin, reference compound]", "values": [{"measurement": "Suppression of COX-2 promoter activity", "setting": "human COX-2 promoter; 15 μg/mL", "value": 28, "unit": "%"}]}
